Entries after “also recorded” stand apart in the source; their conditions may differ.
Tests used:
[1] = system: I-D3 chimeric olfactory receptor; test: Ca2+ imaging, individual clone I-D3 in HEK-293 cells with Gα15,16; assay type: cell-based, mouse
Method: (§1) These transfected cells were then tested for their ability to functionally respond to ligand-receptor binding. The ligand, the adrenergic agonist isoproterenol, was “bath” applied to the transfected cells and single cell Ca^2+-imaging was performed. Cells were pre-loaded with the Ca^2+-sensitive fluorescent dye FURA-2 AM (Molecular Probes) by bathing in serum-free DMEM containing 4 μM of the membrane permeant chemical for 1 hr at 37° C., then washed with a standard bath solution (130 mM NaCl, 2 mM CaCl2, 5 mM KCl, 10 mM glucose, 10 mM Na.HEPES/pH 7.4 at room temperature). […] Fluorescence emission at 510 nm was monitored for each excitation wavelength via an intensified CCD camera. […] Attofluor-Ratiovision software (Atto Instruments) was used to determine the Ca^2+-dependent fluorescence signal expressed as the F340/F380 ratio. […]

[2] = system: mouse olfactory receptor TM II–VII chimeric receptor library (pools of clones); test: Ca2+ imaging screen of 80 library chimeric receptors (10 pools of eight constructs) against 26 odorants in HEK-293 cells with Gα15,16; assay type: cell-based; conditions: for intracellular Ca2+ response of a clone pool: odorants applied sequentially; for response of a library receptor: micromolar concentrations, three receptors, respectively
Method: HEK-293 cells (obtained from the ATCC) were grown in DMEM supplemented with 10% fetal bovine serum, penicillin (100 U/ml), streptomycin (100 μg/ml) and L-glutamine (2 mM) in 5% CO2. Before transfection, the cells were seeded onto poly-L-lysine-coated 10.5×35×0.17 mm glass coverslips (Bellco) placed in the 60 mm culture dishes. Calcium phosphate-mediated transfections were performed in a 60 mm dish with 3 to 4 μg of receptor construct DNA, 1 μg of pCIS Gα 15 and Gα16 expression vector (Offermanns (1995) supra). 2 μg of pBluescript carrier DNA, and 0.3 μg of pRSV-T antigen expression vector (Gorman (1990) DNA and Protein Eng. Tech. 2:3–9). After 5 to 7 hr incubation, the cells were washed once with PBS containing 0.5 mM EDTA and 10% DMSO, then with PBS before continuing growth in regular media for 40–50 hr.
(§2) These transfected cells were then tested for their ability to functionally respond to ligand-receptor binding. The ligand, the adrenergic agonist isoproterenol, was “bath” applied to the transfected cells and single cell Ca^2+-imaging was performed. Cells were pre-loaded with the Ca^2+-sensitive fluorescent dye FURA-2 AM (Molecular Probes) by bathing in serum-free DMEM containing 4 μM of the membrane permeant chemical for 1 hr at 37° C., then washed with a standard bath solution (130 mM NaCl, 2 mM CaCl2, 5 mM KCl, 10 mM glucose, 10 mM Na.HEPES/pH 7.4 at room temperature). For each experiment, a glass coverslip with FURA-2 loaded HEK 293 cells was introduced into an open-topped, longitudinal microperfusion chamber (300 μl bath volume mounted on a Zeiss Axiovert 135 microscope equipped with an F Fluar 40×/1.30 oil-immersion lens. The cells were superfused with test solutions typically for 30 to 40 seconds (5 ml/application) and washed out with 5 ml of bath solution at the end of each application. Each test solution was freshly diluted and manually applied with a micropipette into the chamber. Because of this manual procedure, there could be several seconds of delay in actual application from electronic tick marks used to define the beginning of application in each graph. At the same time, the solution flow might not be completely laminar. In most cases, the onset of Ca2+ rise in response to a specific solution occurred within 15 seconds of the beginning of solution application, though longer delays were sometimes observed. Acetylcholine was applied at the end of each experiment at 10 μM for 15–20 seconds. Ratiometric Ca^2+ measurements were performed as described by Grynkiewicz (1985) 260:3440–3450, with modifications using the Zeiss/Attofluor-Ratiovision imaging system. At 5-second intervals, the cells were sequentially illuminated for less than 100 ms, first at 340 nm and then at 380 nm. Fluorescence emission at 510 nm was monitored for each excitation wavelength via an intensified CCD camera. Averaged pixel intensities within 40 to 100 regions of interest, corresponding to 40 to 100 individual cells, were digitized and stored on a computer. Attofluor-Ratiovision software (Atto Instruments) was used to determine the Ca^2+-dependent fluorescence signal expressed as the F340/F380 ratio.
The 7-transmembrane domain region TM II–VII expressing vector libraries of the invention were expressed in this cell expression system. Various odorant were screened for their ability to generate a physiologic response in the form of a calcium transient, as above. Eighty plasmid clones arrayed in microtiter plates were pooled into 10 groups of eight constructs each, and co-transfected with Gα15,16 into HEK-293 cells. […]

[3] = system: full-length I-C6 receptor fused to translocation domain (rhodopsin tag); test: Ca2+ imaging, full-length I-C6 receptor with rhodopsin tag in HEK-293 cells; assay type: cell-based, mouse
Method: PCR products were digested with PstI and BspEI restriction enzymes before size fractionation, purification and ligation into the pCMV-Rho/M4NC vector (see FIG. 1A). The vector ligation products were transformed into E. coli and 480 clones were placed in 96-well plates. […] Pools of cells from a single column of the plates (8 wells) were grown in a 50 ml culture and plasmid DNA prepared. Insert-containing vectors containing: the 5′-untranslated region of the rhodopsin gene, which included its coding region for the initiation methionine and the next 19 residues; joined to a full-length cDNA for a mouse olfactory receptor (M4 or I-C6), under the control of the CMV promoter, were also prepared. The full-length coding region of olfactory receptors mI7 and I-C6 were obtained by screening a mouse (129 SV/J) genomic phage (λFIX-II) library (2×10^6 independent clones) using ^32P-labeled DNA fragments (of TMII through VII sequence) of the respective receptors under stringent conditions (hybridized at 0.2×SSC at 65° C.). DNA fragments encoding the full-length receptors were cloned into pBluescript (Stratagene) and sequenced.
as §2
To determine if these physiologic responses were caused by ligand interaction with a full-length 7-membrane receptor, a genomic clone of the entire I-C6 receptor coding sequence was isolated and used to make a chimeric molecule incorporating the tranlocation domain of the invention (the “rhodopsin tag” sequence). The full-length I-C6 receptor retained the same stereo-selectivity as a chimeric receptor construct whose only I-C6 sequence was the transmembrane domains II through VII (i.e., the odorant/ligand binding domain). […]

[4] = system: I-G7 chimeric olfactory receptor; test: Ca2+ imaging, individual clone I-G7 in HEK-293 cells with Gα15,16; assay type: cell-based, mouse; conditions: 10 μM
Method: These transfected cells were then tested for their ability to functionally respond to ligand-receptor binding. The ligand, the adrenergic agonist isoproterenol, was “bath” applied to the transfected cells and single cell Ca^2+-imaging was performed. Cells were pre-loaded with the Ca^2+-sensitive fluorescent dye FURA-2 AM (Molecular Probes) by bathing in serum-free DMEM containing 4 μM of the membrane permeant chemical for 1 hr at 37° C., then washed with a standard bath solution (130 mM NaCl, 2 mM CaCl2, 5 mM KCl, 10 mM glucose, 10 mM Na.HEPES/pH 7.4 at room temperature). For each experiment, a glass coverslip with FURA-2 loaded HEK 293 cells was introduced into an open-topped, longitudinal microperfusion chamber (300 μl bath volume mounted on a Zeiss Axiovert 135 microscope equipped with an F Fluar 40×/1.30 oil-immersion lens. The cells were superfused with test solutions typically for 30 to 40 seconds (5 ml/application) and washed out with 5 ml of bath solution at the end of each application. Each test solution was freshly diluted and manually applied with a micropipette into the chamber. Because of this manual procedure, there could be several seconds of delay in actual application from electronic tick marks used to define the beginning of application in each graph. At the same time, the solution flow might not be completely laminar. In most cases, the onset of Ca2+ rise in response to a specific solution occurred within 15 seconds of the beginning of solution application, though longer delays were sometimes observed. Acetylcholine was applied at the end of each experiment at 10 μM for 15–20 seconds. Ratiometric Ca^2+ measurements were performed as described by Grynkiewicz (1985) 260:3440–3450, with modifications using the Zeiss/Attofluor-Ratiovision imaging system. […] Fluorescence emission at 510 nm was monitored for each excitation wavelength via an intensified CCD camera. […] Attofluor-Ratiovision software (Atto Instruments) was used to determine the Ca^2+-dependent fluorescence signal expressed as the F340/F380 ratio. […]

[5] = system: I-C6 chimeric olfactory receptor (TM II–VII); test: Ca2+ imaging, individual clone I-C6 (TM II–VII chimeric) in HEK-293 cells with Gα15,16; assay type: cell-based, mouse; conditions: (−) vs (+) isomer
Method: as §1

[6] = control experiments lacking Gα15,16

## C=C(C)C1CC=C(C)C(=O)C1 (single isomer, unassigned; (-)) [(−) carvone]
[1]
  intracellular Ca2+ response: responsive
[2]; 10 μM
  intracellular Ca2+ response of a clone pool: transient increases in Ca^2+
[2]; 10 μM, second application
  Ca2+ response of a clone pool to a second application: second response to (−) carvone could still be elicited

## CC(C)=CCCC(C)CCBr (single isomer, unassigned; (-)) [(−) citronellyl bromide]
[3]
  qualitative rank order of potency for binding and activating the I-C6 receptor: (−)citronellal>(+)citronellal, citronellyl bromide>28 other odorants
[3]; 30 μM
  intracellular Ca2+ response: small response
[3]; [6]
  intracellular Ca2+ response: no response

## C=C(C)[C@H]1CC=C(C)C(=O)C1 [(+) carvone]
[1]
  intracellular Ca2+ response: responsive
[2]; 10 μM
  intracellular Ca2+ response of a clone pool: lack of response

## C=C(C)C1CC=C(C)CC1 (single isomer, unassigned; (+)) [(+) limonene]
[2]; 10 μM
  intracellular Ca2+ response of a clone pool: transient increases in Ca^2+
[4]
  intracellular Ca2+ response: responded

## CC(C)=CCCC(C)CC=O (single isomer, unassigned; (-)) [(−) citronellal]
[2]; 10 μM
  intracellular Ca2+ response of a clone pool: transient increases in Ca^2+
[2]
  response of a library receptor: responded
[3]
  qualitative rank order of potency for binding and activating the I-C6 receptor: (−)citronellal>(+)citronellal, citronellyl bromide>28 other odorants
[3]; 1 μM
  intracellular Ca2+ response: responding
[3]; (−) vs (+) isomer
  stereo-selectivity of the Ca2+ response: preferred
[3]; applied immediately after 30 μM (+) citronellal (desensitization)
  intracellular Ca2+ response after a prior positive response: lack of response
[3]; [6]
  intracellular Ca2+ response: no response
[5]
  stereo-selectivity of the Ca2+ response: selective; also recorded: preferred

## C=C(C)[C@H]1CC=C(C)CC1 [limonene]
[2]
  response of a library receptor: responded
[3]; 100 μM
  intracellular Ca2+ response: no responses

## (−) limonene
[4]
  Ca2+ response relative to the (+) isomer: perhaps not as well
  intracellular Ca2+ response: responded
